Source: US12326492B2, “Systems and methods of detecting interstitial cystitis” (LIPELLA PHARMACEUTICALS, INC., priority 2014, dated 2025)

Experiments:
[1] = T1-reducing contrast agents, Table 1; cited from earlier work
[2] = MRI bladder phantom permeability assay (dialysis membrane in gelatin, spin-echo MRI); format: physicochemical; conditions: membrane 12-14 kD MW cutoff, 425 μM Gd-DTPA, 5 mM Ferumoxytol in lumen
Text: FIG. 2 is a schematic of synthetic model system (an MRI “bladder phantom”) where membrane porosity and soft matter diffusivity can be controlled. The MRI bladder phantom, shown in FIG. 2, was constructed from clear polycarbonate cylindrical tubes having an outer diameter of 35 mm, a wall thickness of 4 mm, and a length of 90 mm. A sealed (70 mm length, 7 mm diameter) segment of a filled wet dialysis membrane was suspended in the center of each polycarbonate tube lumen and aligned with the tube length, during which a liquid solution (3.125% w/w) of hydrolyzed collagen was added to the lumen of the tube (but not the lumen of the dialysis membrane) and allowed to gel. The dialysis membrane porosity was 12-14 kD MW cutoff. The bladder phantom was placed in a standard mouse MRI RF coil for imaging on a 3-Tesla bench top MRI system with a bore diameter of 160 mm and a 70 mm field of view (MR Solutions, Surrey, UK). […]
This dark line is indicative of a lack of hydrogen nuclei in the liquid state where the dialysis membrane is located, a position that represents the luminal surface of the bladder. […] Since the entire lumen has an increased signal intensity, it is difficult to see without quantitative tools if the gadopentetate dimeglumine (Gd-DTPA) is diffusing into the gelatin an issue that becomes more relevant in a biological setting. […]

Compound | Average Diameter [1] [Å] | diffusion across the dialysis membrane [2]
O=C([O-])CN1CCN(CC(=O)[O-])CCN([C@H](CO)[C@H](O)CO)CCN(CC(=O)[O-])CC1.[Gd+3] (racemic) [Gadovist, Gadobutrol] | 8 | 
O=C([O-])CN(CCN(CC(=O)[O-])CC(COP(=O)([O-])OC1CCC(c2ccccc2)(c2ccccc2)CC1)N(CC(=O)[O-])CC(=O)[O-])CC(=O)[O-].[Gd+3].[Na+].[Na+].[Na+] (stereo not shown) [Ablavar, Gadofosveset trisodium] | 10 | 
CCOc1ccc(CC(CN(CCN(CC(=O)[O-])CC(=O)[O-])CC(=O)[O-])N(CC(=O)[O-])CC(=O)[O-])cc1.[Gd+3].[Na+].[Na+] (stereo not shown) [Eovist, Gadoxetate Disodium] | 9 | 
CNC[C@H](O)[C@@H](O)[C@H](O)[C@H](O)CO.CNC[C@H](O)[C@@H](O)[C@H](O)[C@H](O)CO.O=C([O-])CN(CCN(CC(=O)[O-])CC(=O)O)CCN(CC(=O)[O-])CC(=O)O.[Gd+3] [Magnevist, Gadopentetate dimeglumine] | 10 | porosity large enough to allow gadopentetate dimeglumine (Gd-DTPA) to pass
CNC[C@H](O)[C@@H](O)[C@H](O)[C@H](O)CO.CNC[C@H](O)[C@@H](O)[C@H](O)[C@H](O)CO.O=C([O-])CN(CCN(CC(=O)[O-])CC(=O)O)CCN(CC(=O)O)C(COCc1ccccc1)C(=O)[O-].[Gd+3] (stereo not shown) [MultiHance, Gadobenate Dimeglumine] | 11 | 
CNC(=O)CN(CCN(CCN(CC(=O)[O-])CC(=O)NC)CC(=O)[O-])CC(=O)[O-].[Gd+3] [Omniscan, Gadodiamide] | 8 | 
COCCNC(=O)CN(CCN(CCN(CC(=O)[O-])CC(=O)NCCOC)CC(=O)[O-])CC(=O)[O-].[Gd+3] [OptiMARK, Gadoversetamide] | 8 | 
CC(O)CN1CCN(CC(=O)[O-])CCN(CC(=O)[O-])CCN(CC(=O)[O-])CC1.[Gd+3] (stereo not shown) [ProHance, Gadoteridol] | 7 | 
Gadoterate meglumine [Dotarem] | 9 | 
